The experiment has as its target T1, mouse NPY5-receptor (mNPY5) (Mus musculus, UniProt O70342).
T1 construct: The full-length cDNA encoding the mouse NPY5 (mNPY5) receptor was amplified from mouse brain cDNA; expressed in transfected cells; membranes used
T1 sequence (O70342 1-466): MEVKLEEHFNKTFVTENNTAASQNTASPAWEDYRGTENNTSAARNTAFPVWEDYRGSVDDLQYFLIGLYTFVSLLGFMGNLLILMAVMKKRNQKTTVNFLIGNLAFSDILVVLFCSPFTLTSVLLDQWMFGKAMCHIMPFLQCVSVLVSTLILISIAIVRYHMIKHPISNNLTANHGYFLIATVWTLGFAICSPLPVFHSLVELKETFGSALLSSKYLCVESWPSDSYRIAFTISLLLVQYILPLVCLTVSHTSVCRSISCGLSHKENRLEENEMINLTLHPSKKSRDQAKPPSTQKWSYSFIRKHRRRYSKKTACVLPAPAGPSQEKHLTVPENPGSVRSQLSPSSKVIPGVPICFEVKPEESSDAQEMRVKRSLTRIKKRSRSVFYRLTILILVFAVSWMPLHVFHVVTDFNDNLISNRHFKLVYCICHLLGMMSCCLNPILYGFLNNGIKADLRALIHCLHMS
Kind of experiment: Radioligand competition binding. As to conditions: membranes of HEK293 cells expressing recombinant mNPY5; 100 pM [125I]labelled peptide YY; 1 h at 22° C. From the text:
Cloning of Mouse NPY5 Receptor cDNAs:
The full-length cDNA encoding the mouse NPY5 (mNPY5) receptor was amplified from mouse brain cDNA using specific primers, designed based on the published sequence, and Pfu DNA-Polymerase. The amplification product was subcloned into the mammalian expression vector pcDNA3 using EcoRI and XhoI restriction sites. Positive clones were sequenced and one clone, encoding the published sequence (see Borowsky, B., et al., Molecular biology and pharmacology of multiple NPY Y5 receptor species homologs, Regul. Pept. (1998) 75-76:45-53) was selected for generation of stable cell clones.
Human embryonic kidney 293 (HEK293) cells were transfected with 10 μg mNPY5 DNA using the lipofectamine reagent (Gibco BRL) according to the manufacturer's instruction. Two days after transfection, geneticin selection (1 mg/ml) was initiated and several stable clones were isolated. One clone was further used for pharmacological characterization.
Radioligand Competition Binding:
Human embryonic kidney 293 cells (HEK293), expressing recombinant mouse NPY5-receptor (mNPY5) were broken by three freeze/thawing cycles in hypotonic Tris buffer (5 mM, pH 7.4, 1 mM MgCl2), homogenized and centrifuged at 72,000×g for 15 min. […] Protein was determined according to the method of Lowry using bovine serum albumine (BSA) as a standard. […]
Background: Loss of bound radioactivity is the signal in a displacement assay; it reports binding, not function.

As usually defined, the IC50 is the midpoint of a concentration-inhibition curve.

`O=C(c1ccccn1)c1cnc(NCCCNS(=O)(=O)c2ccccc2F)s1` [Example 1, 2-Fluoro-N-{3-[5-(pyridine-2-carbonyl)-thiazol-2-ylamino]-propyl}-benzenesulfonamide]: the IC50 turned out to be 5.4 nM.

Turning to `COc1ccc(C)cc1S(=O)(=O)NCCCNc1nc(C(=O)c2ccccc2C)cs1` [Example 140, 2-Methoxy-5-methyl-N-{3-[4-(2-methyl-benzoyl)-thiazol-2-ylamino]-propyl}-benzenesulfonamide], the IC50 stood at 6 nM.

Source of the values: patent publication US6686381B2, “Thiazole derivatives” (Hoffmann-La Roche Inc., priority 2002, dated 2004).
